Reference: patent US20110098359A1, “Compositions and Methods for Treatment of Glaucoma” (Stellenbosch University, priority 2007, published 2011)

Legend:
[1] = Permeability experiments in flow-through diffusion cells across human corneas; type: in vitro ADME; details: for steady-state flux values: frozen/thawed human cornea, 20° C.
Description: (§1) Harvested donor comeas, which were deemed unsuitable for transplantation because of infections such as hepatitis B and human immunodeficiency virus (HIV), were obtained from The Eye Bank Foundation of South Africa Observatory from 6 patients (mean age±SD, 35±12 years; range, 24-65 years). In addition, rabbit corneas were obtained from 6 freshly slaughtered rabbits (Country Lane Nursery Farm, Kraaifontein, Cape Town, South Africa). Excised corneas were immediately placed in McCarey-Kaufman solution and transported to a laboratory within 6 hours. The McCarey-Kaufman solution consisted of a stock solution of Medium 199 (Sigma Chemical Company, St. Louis, Mo., U.S.A.) to which sodium bicarbonate, as well as 25 mM of HEPES and 5% dextran, was added before using the solution for the transport of corneal specimens. On arrival in the laboratory, the corneas were hemisected. One half was used immediately, and the other half was snap-frozen in liquid nitrogen and stored at −85° C. for no longer than 6 months before use. At least one piece of corneal tissue from each specimen was placed in formalin and retained for histologic examination.
(§2) Before each permeability experiment, tissue specimens were thawed at room temperature in phosphate buffered saline (PBS, pH 7.4). […]
(§3) Following equilibration, the PBS was removed from the donor compartment and replaced with 1.0 mL of PBS, containing 1 mg/mL (0.1%) paracetamol in PBS at pH 7.4 (w/v) or else 1 mg/mL (0.1%) paracetamol in a commercially available artificial tear gel i.e. Teargel® liquid gel (Restan Laboratories, Bryanston, South Africa). […] Samples were analyzed at the Division of Pharmacology, Faculty of Health Sciences, Stellenbosch University by HPLC with UV detection. The collected fractions were analyzed directly after completion of the respective experiment for their paracetamol content.
(§4) Flux (J) values across membranes were calculated by means of the relationship
(§5) where Q indicates quantity of substance crossing membrane (in ng); A, membrane area exposed (in cm^2); and t, time of exposure (in minutes). […]

[2] = Corneal penetration experiments (general statement); type: in vitro ADME; details: more than 2000 corneal penetration experiments
Description: An ophthalmic solution was made up as follows: 1 mg/ml (0.1%) solution of paracetamol in phosphate buffered saline (pH=7.4) was used for half of the experiments and 1 mg/ml (0.1%) solution of paracetamol in phosphate […]. […] These tests were conducted in the following manner.

[3] = Permeability experiments in flow-through diffusion cells across rabbit corneas; type: in vitro ADME; details: for steady-state flux values: frozen/thawed rabbit cornea, 20° C.
Description: as §1, §2, §3, §4, §5

[4] = Initial trials: oral paracetamol in patients with glaucoma, intra-ocular pressure reduction; type: in vivo, human; details: 1000 mg orally 4 to 6 hourly, after 24 to 48 hours
Description: In initial trials, 1000 mg of paracetamol was administered orally 4 to 6 hourly to several patients with glaucoma. In all cases the intra-ocular pressure reduction was in the order of 30% after 24 to 48 hours. This compares well with the pressure lowering effect of currently available commercial preparations.

[5] = 0.1% paracetamol in Teargel (TG)

steady-state flux values ([1]; 0.1% paracetamol in PBS pH 7.4): 870±76 ng·cm^−2·min^−1 | steady-state flux values [1, 5]: 860±33 ng·cm^−2·min^−1 | effect of Teargel as a soluent on the diffusion rate of paracetamol ([1]; across human corneas, Teargel vs PBS, 0.1%): did not affect the diffusion rate | corneal penetration [2]: does penetrate the cornea well | steady-state flux values ([3]; 0.1% paracetamol in PBS pH 7.4): 774±30 ng·cm^−2·min^−1 | steady-state flux values [3, 5]: 860±39 ng·cm^−2·min^−1 | effect of Teargel on the diffusion rate of paracetamol ([3]; across rabbit corneas, Teargel vs PBS, 0.1%): increase the diffusion rate
SMILES: CC(=O)Nc1ccc(O)cc1 [paracetamol]
intra-ocular pressure reduction [4]: ~30%
